# How the values were obtained:
# Assay type in all cases: in vivo
# [1] = system: Tetranychus urticae; assay: Test Example 1: foliar spray on kidney bean leaves carrying Tetranychus urticae adults, insect death rate; conditions: etoxazole 0.000781 ppm alone, 2 days after treatment
# Method: Kidney beans (Nagauzura saitou) were planted (one plant per container) in plastic containers (volume: 90 ml) and grown until the primary leaves had fully expanded. Only one leaf of each kidney bean plant was left on the plant and all the other leaves were removed from the plant. Then, 5 adults of Tetranychus urticae were released on each leaf.
# (§1) A suspension concentrate containing 10.0% by weight of etoxazole [product name: Baroque (registered trademark) flowable, manufactured by Kyoyu Agri Co., Ltd.] was diluted with water containing 0.02% by volume of a spreading agent [product name: Sindain (registered trademark), manufactured by Sumitomo Chemical Co., […]
# (§2) A reference standard containing 99.9% by weight of fenazaquin was diluted with water containing 0.02% by volume of a spreading agent [product name: Sindain (registered trademark), manufactured by Sumitomo Chemical Co., Ltd.] so that the concentration of fenazaquin became 50 ppm. […]
# Three days after the release of the insects, each test solution was sprayed onto the leaves of kidney bean plants and the leaves were air-dried. […] An insect death rate was calculated according to the following equation. […]
# [2] = system: Tetranychus urticae; assay: Test Example 2: foliar spray on kidney bean leaves carrying Tetranychus urticae adults, insect death rate; conditions: etoxazole 0.8 ppm alone, 3 days after treatment
# Method: Kidney beans (Nagauzura saitou) were planted (one plant per container) in plastic containers (volume: 90 ml) and grown until the primary leaves had fully expanded. Only one leaf of each kidney bean plant was left on the plant and all the other leaves were removed from the plant. Then, 10 adults of Tetranychus urticae were released on each leaf.
# as §1, §2
# Four days after the release of the insects, each test solution was sprayed onto the leaves of kidney bean plants and the leaves were air-dried. […] An insect death rate was calculated according to the following equation. […]
# [3] = system: Bemisia tabaci; assay: Test Example 3: spray on cabbage seedlings carrying Bemisia tabaci, insect death rate; conditions: 2 days after treatment
# Method: Cabbages (Green ball) were planted (one plant per container) in plastic containers (volume: 90 ml) and grown until the third to fourth leaf stage. Only one leaf of each cabbage plant was left on the plant and all the other leaves were removed from the plant. The plastic containers were put into a net cage containing a lot of living Bemisia tabaci and allowed to stand for 24 hours. After that, the plastic containers were taken out from the cage and the number of living insects (Bemisia tabaci) on the cabbage seedlings was determined (This is called the “number of insects before treatment”).
# A suspension concentrate containing 10.0% by weight of etoxazole [product name: Baroque (registered trademark) flowable, manufactured by Kyoyu Agri Co., Ltd.] was diluted with water containing 0.02% by volume of a spreading agent [product name: Sindain (registered trademark), manufactured by Sumitomo Chemical Co., Ltd.] so that the concentration of etoxazole became 800 ppm.
# A reference standard containing 99.9% by weight of fenazaquin was diluted with water containing 0.02% by volume of a spreading agent [product name: Sindain (registered trademark), manufactured by Sumitomo Chemical Co., Ltd.] so that the concentration of fenazaquin became 50 ppm.
# The water dilution of etoxazole, the water dilution of fenazaquin, and water containing 0.02% by volume of a spreading agent [product name: Sindain (registered trademark), manufactured by Sumitomo Chemical Co., Ltd.] were mixed to prepare a test solution with a predetermined concentration of etoxazole and/or fenazaquin.
# Then, each test solution was sprayed onto the plastic containers to sufficiently soak cabbage seedlings, and allowed to stand for room temperature (about 25° C.). Two days after the treatment, the number of living insects (Bemisia tabaci) on the cabbage seedlings was determined (This is called the “number of insects after treatment”).
# An insect death rate was calculated according to the following equation. For each treatment there are duplicates. […]
structure (smiles),measurement,setting,value
"CCOc1cc(C(C)(C)C)ccc1C1COC(c2c(F)cccc2F)=N1 (centres unmarked) [Etoxazole, 2-(2,6-difluorophenyl)-4-[4-(1,1-dimethylethyl)-2-ethoxyphenyl]-4,5-dihydrooxazole]",Insect death rate (%),[1],10%
same,Insect death rate (%),[2],15%
same,Insect death rate (%),[3]; etoxazole 50 ppm alone,15%
same,Insect death rate (%),[3]; etoxazole 200 ppm alone,17%
same,Insect death rate (%),[3]; etoxazole 800 ppm alone,32%
